Laboratory results taken from patent publication US20150290418A1, “TREATMENT OF RESPIRATORY CONDITION USING TARGETED DELIVERY” (Beth Israel Deaconess Medical Center, Inc., priority 2013, published 2015).

What was measured:
Type in all cases: in vivo
[1] = tested on: respiratory system; assay: Respiratory impedance spectrum (resistance and elastance) during MCh doses and after intravenous atropine
Protocol: By combining specific frequencies such that there is physiologic tidal excursion, in an example embodiment, the EVW is able to maintain gas exchange during conventional ventilation while providing continuous assessment of Z. The EVW differs from other oscillatory waveforms in that it has been modified to allow passive expiration, so Z is calculated from the inspiratory portion of the breath only.
The mechanical impedance spectrum of the lungs or total respiratory system can be very sensitive indicators of bronchoconstriction and response to therapy. Although mathematically Z is a complex number with real and imaginary parts, it can be expressed in terms of effective frequency dependent resistance and elastance. Measurements can be obtained before and 5 minutes following a deep inspiration (DI) to 35 cm H2O, as well as after administration of intravenous atropine. Under pre and post-DI conditions, both respiratory resistance (Rrs) and elastance (Ers) increased at each frequency with increases in MCh dose. At the lowest frequencies, Rrs increased ˜50% during the highest dose of MCh compared with baseline due to increases in both airway and tissue resistances. The Ers increased by ˜65% as the parenchyma stiffens due to airway-tissue interdependence. […] Thus, the impedance spectra reveal subtleties of airway mechanics and response to therapy not evident from simple Rrs and Ers estimates measured at a single breathing frequency. Coupling these types of data to distributed models of airway and tissue mechanics then allows estimates of the heterogeneity of airway or tissue changes in addition to the overall lung properties.

[2] = tested on: airways; assay: Bronchodilation with targeted versus continuous delivery mode of volatile anesthetics (FIG. 8); settings: targeted vs continuous delivery
Source text: The various delivery modes are at least targeted mode and continuous mode. […] Using the systems and methods described here, volatile anesthetics can be selectively delivered for a specified interval during inspiration.

[3] = tested on: airways; assay: Lung measurements for targeted isoflurane delivery during phases of treatment (FIG. 7); settings: following targeted therapy with isoflurane
Source text: Severe sustained bronchospasm may be established using continuous i.v. infusion of methacholine. Using the anesthetic ventilator system, a user has the ability to control the timing, peak concentration, and duration of inhaled isoflurane delivery for various ranges of conventional ventilator rates and tidal volumes typical of ICU patients. In one embodiment, the solenoid valves (shown in FIG. 1) can be programmed to deliver isoflurane during the last 180 cc of the delivered inspired volume. Furthermore, none of the inhaled isoflurane delivered during the last portion of the inspiratory period reaches the alveolar compartment to reduce the risk of side effects and systemic absorption.
FIG. 7 are exemplary graphs 700 illustrating various lung measurements for targeted isoflurane delivery measured during various phases of treatment, according to an example embodiment. As shown in graphs 700, various lung measurements, including lung resistance (RL), lung elastance (EL), and dead space (VD), are measured as described above. […] The estimates of lung resistance and lung elastance may be obtained via multiple linear regression on measured flow and transplumonary pressure waveforms. Anatomic dead space may be estimated using breath-by-breath volume capnography. Capnography is the monitoring of the concentration or partial pressure of carbon dioxide in the respiratory gases. These measurements may be acquired at least under baseline conditions, during bronchoconstriction, after 10-20 minutes of volatile anesthetic treatment, and after maximal bronochodilation with i.v. atrophine. Airway constriction results in increased airway resistance and stiffening of the lung parenchyma, which is often measured with lung resistance and lung elastance. Measuring these parameters help in determining the effectiveness of the targeted delivery treatment.

[4] = Isoflurane traces during targeted and continuous delivery modes (FIG. 9); settings: two breaths
Source text: FIG. 9 are exemplary graphs 900 illustrating isoflurane traces during various delivery modes in relation to the delivered tidal volume for two breaths, according to an example embodiment. As shown in graphs 900, the solid line represents the amount of isoflurane in the lungs and the dotted line represents the tidal volume (Vt) over time.

[5] = following intravenous atropine, MCh 200 μg/min
[6] = following intravenous atropine, any frequency

## CC(=O)OC(C)C[N+](C)(C)C (stereo not shown) [MCh, methacholine]
[1]; highest dose of MCh
  increase in respiratory elastance (Ers): ~65%
[1]; lowest frequencies, highest dose of MCh (200 μg/min)
  increase in respiratory resistance (Rrs) compared with baseline: ~50%

## CN1[C@@H]2CC[C@H]1C[C@@H](OC(=O)C(CO)c1ccccc1)C2 (stereo partly shown) [atropine]
[1]; [5]
  Ers compared with value at the highest MCh dose: decrease
  Rrs compared with value at the highest MCh dose: decrease
[1]; [6]
  Ers compared with baseline value: no significant difference
  Rrs compared with baseline value: no significant difference

## FC(F)OC(Cl)C(F)(F)F (stereo not shown) [isoflurane]
[2]
  bronchodilation, targeted delivery mode compared with continuous delivery mode: slightly higher
[3]
  lung elastance (EL): decreasing trend
  lung resistance (RL): decreasing trend
[3]; evidence of bronchodilation
  estimation of dead space (VD): increasing
[4]; over time
  levels of isoflurane agent in the lungs, targeted compared with continuous delivery method: lower for most of the time
[4]
  peak level of isoflurane, targeted compared with continuous delivery method: comparable

## FCOC(C(F)(F)F)C(F)(F)F [sevoflurane]
[2]
  bronchodilation, targeted delivery mode compared with continuous delivery mode: slightly higher
